Here are results for 7 compounds from patent publication US20250084040A1, “SUBSTITUTED HETEROCYCLES AS c-MYC TARGETING AGENTS” (Northwestern University, priority 2018, published 2025).

Data set [1] concerns the target MYC/Max binding to DNA (Homo sapiens, UniProt P01106). In words: Electrophoretic mobility shift assay (EMSA), MYC/Max binding to DNA. The protocol: We also tested our best hit compound Min9 (NUCC-0176234) and newly synthesized analogs for effects of these compounds on MYC/Max binding to DNA in electrophoretic mobility shift assays (EMSAs). (See FIG. 5a and FIG. 5b). We expected the active compounds to impair MYC/Max binding to DNA. Several strucutural analogs of Min9 were tested over multiple doses for inhibiting MYC-DNA binding and we observed a dose-dependent inhibition. (See FIG. 5c).

In data set [2] the test system is DNA damage. In words: rH2AX staining assay for DNA damage. The format is cell-based. On the procedure:
Min9 (NUCC-0176234) was also tested for its ability to cause DNA damage in an rH2AX staining assay. We would not expect cMYC-targeting agents to produce significant DNA damage. Compounds that act directly against DNA such as doxorubicin do however. […] (See FIG. 6).

Data set [3] deals with cMYC wild-type (WT) and cMYC KO line. In words: Cell viability, cMYC wild-type (WT) versus cMYC KO line. The format is cell-based. As to conditions: cMYC WT vs cMYC KO line. On the procedure: Min9 (NUCC-0176234) was also tested in a cell viability assay against a cMYC wild-type (WT) and a cMYC KO line.
The nature of data set [4]: In vitro metabolism, mouse S9 fraction. It counts as in vitro ADME. On the procedure:
In vitro metabolism of NUCC-176242 and NUCC-176248 were tested using mouse liver microsomes and a mouse S9 fraction. (See FIG. 9).

Data set [5] relates to wild type and MYC knockout rat fibroblasts. In words: Growth inhibition of MYC wild type versus MYC knockout rat fibroblasts. The format is cell-based. An excerpt: We tested the top 13 active compounds in the first screen assay. […] More than half of the tested compounds show better growth inhibitory effect on MYC WT compared to MYC KO cells.
Data set [6] relates to PC12 cells. The data set is described as follows: Cell viability / proliferation of PC12 cells (Myc independent). The format is cell-based. The protocol:
(§1) Proliferation Assay (FIG. 11). PC3 prostate cancer cell line with high Myc level and PC12 pheochromocytoma tumor cell line with non functional Max protein, which is not dependent on Myc-Max complex, were phased from ATCC. Cells were plated in 96 well plate at 1000 cells per well, and Myc inhibitor 361 at various concentrations was added to the cells next day. After 3 days of treatment, fresh medium with 361 were added again, and cell viability was measured by MTS assay at day 5 after the treatment. (See FIG. 11).

Data set [7] concerns MycCap cells. The data set is described as follows: Cell viability of MycCap cells. It counts as cell-based.
The subject of data set [8] is MV411 cells. In words: AML xenograft model (MV411), combination with Ara-C. The format is in vivo, mouse. As to conditions: AML mice xenograft model. On the procedure:
Myc inhibitor combination treatment with Ara-C in AML xenograft model (FIG. 17). CB17 SCID mice were inoculated with MV411 cells at the density of 5×10^6 suspended in PBS and matrigel (1:1). The mice were randomized based on tumor volume into 6 different groups after the tumor reached ˜200 to 500 mm^3. The mice were treated either with vehicle, NUO31, NU975 alone or in combination with cytarabine (Ara-C). […] (See FIG. 17).

The test system of data set [9] is MycCap tumor. In words: MycCap FVB allograft model, combination with anti-PD-1 immunotherapy. It counts as in vivo, mouse. Particulars: combination with Immunotherapy (anti-PD-1 antibody). On the procedure: Myc inhibitor 361 combination with Immunotherapy (FIG. 16). MycCap FVB allograft model was treated with 361 (50 mg/kg) for two days, following by two days of anti-PD-1 antibody (100 ug/day), and kept this 4-day treatment cycle for 4 cycles. (See FIG. 16).

Data set [10] concerns PC3 prostate cancer cell line. The data set is described as follows: Proliferation assay (MTS), PC3 prostate cancer cell line. The format is cell-based. Particulars: day 5. On the procedure: as §1
The test system of data set [11] is MYC transcriptional activity. In words: MYC E-Box luciferase reporter assay. It counts as cell-based. Particulars: MycCap Ebox-luc, 4 hours of treatment. On the procedure:
To test the compounds, we evaluated the in silico hits in a MYC E-Box luciferase reporter assay to measure the effects of these compounds (referred to as Min-1 to Min-32) on MYC transcriptional activity. […] (See FIG. 2).
Myc Ebox luciferase reporter assay (FIG. 12). MycCap cells stably expressing luciferase with CMV promoter (MycCap-luc) or c-Myc E-box-luciferase reporter (MycCap Ebox-luc) were plated at 10000 cells per well in 96 well white-wall plate. Serial dilutions of 361 were treated next day. At 4 hours of treatment, luminescence signal was determined immediately after adding 150 μg/ml of Luciferin to the well. (See FIG. 12).
(A reporter such as luciferase makes a cellular process visible.)

Data set [12] relates to MycCap tumor. The data set is described as follows: MycCap FVB allograft model. It counts as in vivo. Particulars: mouse prostate cancer allograft model, intra-peritoneally. On the procedure:
MycCap FVB allograft model (FIG. 15). FVB mice were inoculated with 1×10^6 of MycCap cells in 100 ul of matrigel subcutaneously on both flanks of the mice. When tumor size reached average size of 150 mm^3, mice were randomized based on tumor volume to 2 groups. Mice were administered with 50 mg/kg of 361 or vehicle (Veh) twice daily intra-peritoneally for two days. The treatment was suspended for 10 day, and initiated the treatment with a lower dose […] daily for another 9 days. Tumor size was measured twice a week during the experiment. (See FIG. 15).

MYC/Max binding to DNA, sequence (P01106 whole entry): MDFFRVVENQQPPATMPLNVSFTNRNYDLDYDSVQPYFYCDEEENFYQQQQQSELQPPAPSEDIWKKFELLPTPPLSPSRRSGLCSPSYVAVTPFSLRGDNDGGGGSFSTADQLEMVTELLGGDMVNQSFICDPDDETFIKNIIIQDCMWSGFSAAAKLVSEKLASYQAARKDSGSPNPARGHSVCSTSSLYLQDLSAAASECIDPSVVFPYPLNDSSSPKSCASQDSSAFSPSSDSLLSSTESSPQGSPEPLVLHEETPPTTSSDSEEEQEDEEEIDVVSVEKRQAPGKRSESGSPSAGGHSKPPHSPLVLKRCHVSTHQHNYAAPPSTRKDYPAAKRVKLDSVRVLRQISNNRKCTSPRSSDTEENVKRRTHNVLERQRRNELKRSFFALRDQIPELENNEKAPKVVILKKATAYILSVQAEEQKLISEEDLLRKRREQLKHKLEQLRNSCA

Take `CCc1ccc(Oc2c[nH]nc2-c2ccc(OCc3cnn(-c4ccccc4)c3)cc2O)cc1` [NUCC-0176234]: in data set [1], the “inhibition of MYC/Max binding to DNA (in words)” value is “prevent c-MYC/DNA binding”. In addition, the DNA damage entry in data set [2] is given as “essentially no DNA damage”. Besides, in data set [3], the “cell viability, WT line versus KO cells” value is “reduces cell viability much more in the WT line than the KO cells”.
For the compound `CCc1ccc(Oc2c(-c3ccc(OCc4ccc(Cl)cc4)cc3O)n[nH]c2C(F)(F)F)cc1` [NUCC-0176242], in data set [4], the “metabolism by mouse S9 fraction” value is “significantly metabolism by the mouse S9 fraction versus NUCC-176248”.
For `CCc1ccc(Oc2c(-c3ccc(OCc4ccncc4)cc3O)n[nH]c2C(F)(F)F)cc1` [NUCC-0176250], in data set [5], the “selectivity of growth inhibition, MYC WT compared to MYC KO cells” value is reported as “great selectivity”.
With `CNC(=O)c1cc(-c2ccc(OCc3ccc(Cl)cc3)c(-c3cc(C(F)(F)F)cc(C(F)(F)F)c3)c2O)nn1C` [NUCC-0201224], the IC50 (commonly the point on the concentration scale where inhibition reaches its midpoint) in data set [6] turned out to be 11.6 µM; in data set [7] it was 1.1 µM.
For `CCCCOc1ccc(-c2cc(C(F)(F)F)n[nH]2)c(O)c1-c1cc(C(F)(F)F)cc(C(F)(F)F)c1` [compound 031], in data set [8], the “anti-tumor effect with Ara-C” value was “significant synergic anti-tumor effect”.
As to `Cn1nc(C(F)(F)F)cc1-c1ccc(OCc2ccc(Cl)cc2)c(-c2cc(C(F)(F)F)cc(C(F)(F)F)c2)c1O` [compound 361], in [9], the tumor progression result was “significantly blocks tumor progression”. Moreover, the “proliferation of Myc dependent cell line PC3” value in data set [10] is “specifically inhibits proliferation”. The c-Myc transcription activity entry in data set [11] is recorded as “inhibits c-Myc transcription activity as an early event before affecting cell viability”. In addition, in [12], the tumor volume entry is given as “reduces tumor volume”.
Take `Cn1nc(C(F)(F)F)cc1-c1ccc(OCc2ccc(Cl)cc2)c(-c2ccc(Cl)c(C(F)(F)F)c2)c1O` [compound 975]: the “anti-tumor effect with Ara-C” value in data set [8] is listed as “significant synergic anti-tumor effect”.
